Results published in ChEMBL document CHEMBL4138123, “Design, synthesis and biological evaluation of novel pyrazolochalcones as potential modulators of PI3K/Akt/mTOR pathway and inducers of apoptosis in breast cancer cells” (Eur J Med Chem, 2017).

What was measured:
[1] = tested on: HL-60(TB); test: Cytotoxicity against human HL-60(TB) cells assessed as growth inhibition after 48 hrs by sulforhodamine B assay; format: functional; conditions: HL-60, 48 h
[2] = tested on: HOP-62; test: Cytotoxicity against human HOP62 cells assessed as growth inhibition after 48 hrs by sulforhodamine B assay; format: functional; conditions: HOP-62, 48 h
[3] = tested on: NCI-H23; test: Cytotoxicity against human NCI-H23 cells assessed as growth inhibition after 48 hrs by sulforhodamine B assay; format: functional; conditions: NCI-H23, 48 h
[4] = tested on: U-251; test: Cytotoxicity against human U251 cells assessed as growth inhibition after 48 hrs by sulforhodamine B assay; format: functional; conditions: U-251, 48 h
[5] = tested on: BT-549; test: Cytotoxicity against human BT549 cells assessed as growth inhibition after 48 hrs by sulforhodamine B assay; format: functional; conditions: BT-549, 48 h
[6] = tested on: T47D; test: Cytotoxicity against human T47D cells assessed as growth inhibition after 48 hrs by sulforhodamine B assay; format: functional
[7] = tested on: MDA-MB-468; test: Cytotoxicity against human MDA-MB-468 cells assessed as growth inhibition after 48 hrs by sulforhodamine B assay; format: functional; conditions: MDA-MB-468, 48 h
[8] = tested on: MCF7; test: Cytotoxicity against human MCF7 cells assessed as growth inhibition after 48 hrs by MTT assay; format: functional, cell-based; conditions: MCF7, 48 h
[9] = tested on: OVCAR-5; test: Cytotoxicity against human OVCAR5 cells assessed as cell growth at 0.01 uM after 48 hrs by sulforhodamine B assay relative to control; format: functional; conditions: OVCAR-5, 48 h, read-out: Activity
[10] = tested on: OVCAR-4; test: Cytotoxicity against human OVCAR4 cells assessed as cell growth at 0.01 uM after 48 hrs by sulforhodamine B assay relative to control; format: functional; conditions: OVCAR-4, 48 h, read-out: Activity
[11] = tested on: HCC 2998; test: Cytotoxicity against human HCC2998 cells assessed as cell growth at 0.01 uM after 48 hrs by sulforhodamine B assay relative to control; format: functional; conditions: HCC 2998, 48 h, read-out: Activity
[12] = tested on: MOLT-4; test: Cytotoxicity against human MOLT4 cells assessed as cell growth at 0.01 uM after 48 hrs by sulforhodamine B assay relative to control; format: functional; conditions: MOLT-4, 48 h, read-out: Activity
[13] = tested on: PC-3; test: Cytotoxicity against human PC3 cells assessed as cell growth at 0.01 uM after 48 hrs by sulforhodamine B assay relative to control; format: functional; conditions: PC-3, 48 h, read-out: Activity
[14] = tested on: NCI-H460; test: Cytotoxicity against human NCI-H460 cells assessed as cell growth at 0.1 uM after 48 hrs by sulforhodamine B assay relative to control; format: functional; conditions: NCI-H460, 48 h, read-out: Activity
[15] = tested on: SF-268; test: Cytotoxicity against human SF268 cells assessed as cell growth at 0.1 uM after 48 hrs by sulforhodamine B assay relative to control; format: functional; conditions: SF-268, 48 h, read-out: Activity
[16] = tested on: T47D; test: Cytotoxicity against human T47D cells assessed as cell growth at 0.1 uM after 48 hrs by sulforhodamine B assay relative to control; format: functional; conditions: read-out: Activity
[17] = tested on: HCT-15; test: Cytotoxicity against human HCT15 cells assessed as cell growth at 1 uM after 48 hrs by sulforhodamine B assay relative to control; format: functional; conditions: HCT-15, 48 h, read-out: Activity
[18] = tested on: IGROV-1; test: Cytotoxicity against human IGROV1 cells assessed as cell growth at 1 uM after 48 hrs by sulforhodamine B assay relative to control; format: functional; conditions: IGROV-1, 48 h, read-out: Activity
[19] = tested on: BT-549; test: Cytotoxicity against human BT549 cells assessed as cell growth at 1 uM after 48 hrs by sulforhodamine B assay relative to control; format: functional; conditions: BT-549, 48 h, read-out: Activity
[20] = tested on: NCI-H226; test: Cytotoxicity against human NCI-H226 cells assessed as cell growth at 10 uM after 48 hrs by sulforhodamine B assay relative to control; format: functional; conditions: NCI-H226, 48 h, read-out: Activity
[21] = tested on: NCI-H522; test: Cytotoxicity against human NCI-H522 cells assessed as cell growth at 10 uM after 48 hrs by sulforhodamine B assay relative to control; format: functional; conditions: NCI-H522, 48 h, read-out: Activity
[22] = tested on: SF-539; test: Cytotoxicity against human SF539 cells assessed as cell growth at 10 uM after 48 hrs by sulforhodamine B assay relative to control; format: functional; conditions: SF-539, 48 h, read-out: Activity
[23] = tested on: SK-MEL-5; test: Cytotoxicity against human SK-MEL-5 cells assessed as cell growth at 10 uM after 48 hrs by sulforhodamine B assay relative to control; format: functional; conditions: SK-MEL-5, 48 h, read-out: Activity
[24] = tested on: Hs-578T; test: Cytotoxicity against human Hs 578T cells assessed as cell growth at 10 uM after 48 hrs by sulforhodamine B assay relative to control; format: functional; conditions: read-out: Activity
[25] = tested on: MOLT-4; test: Cytotoxicity against human MOLT4 cells assessed as cell growth at 100 uM after 48 hrs by sulforhodamine B assay relative to control; format: functional; conditions: MOLT-4, 48 h, read-out: Activity
[26] = tested on: HOP-62; test: Cytotoxicity against human HOP62 cells assessed as cell growth at 100 uM after 48 hrs by sulforhodamine B assay relative to control; format: functional; conditions: HOP-62, 48 h, read-out: Activity
[27] = tested on: HCT-116; test: Cytotoxicity against human HCT116 cells assessed as cell growth at 100 uM after 48 hrs by sulforhodamine B assay relative to control; format: functional; conditions: HCT-116, 48 h, read-out: Activity
[28] = tested on: HCT-15; test: Cytotoxicity against human HCT15 cells assessed as cell growth at 100 uM after 48 hrs by sulforhodamine B assay relative to control; format: functional; conditions: HCT-15, 48 h, read-out: Activity
[29] = tested on: OVCAR-4; test: Cytotoxicity against human OVCAR4 cells assessed as cell growth at 100 uM after 48 hrs by sulforhodamine B assay relative to control; format: functional; conditions: OVCAR-4, 48 h, read-out: Activity
[30] = tested on: OVCAR-8; test: Cytotoxicity against human OVCAR8 cells assessed as cell growth at 100 uM after 48 hrs by sulforhodamine B assay relative to control; format: functional; conditions: OVCAR-8, 48 h, read-out: Activity
[31] = tested on: SK-OV-3; test: Cytotoxicity against human SKOV3 cells assessed as cell growth at 100 uM after 48 hrs by sulforhodamine B assay relative to control; format: functional; conditions: SK-OV-3, 48 h, read-out: Activity
[32] = tested on: 786-0; test: Cytotoxicity against human 786-0 cells assessed as cell growth at 100 uM after 48 hrs by sulforhodamine B assay relative to control; format: functional; conditions: 786-0, 48 h, read-out: Activity
[33] = tested on: PC-3; test: Cytotoxicity against human PC3 cells assessed as cell growth at 100 uM after 48 hrs by sulforhodamine B assay relative to control; format: functional; conditions: PC-3, 48 h, read-out: Activity
[34] = tested on: DU-145; test: Cytotoxicity against human DU145 cells assessed as cell growth at 100 uM after 48 hrs by sulforhodamine B assay relative to control; format: functional; conditions: DU-145, 48 h, read-out: Activity
[35] = tested on: T47D; test: Cytotoxicity against human T47D cells assessed as cell growth at 100 uM after 48 hrs by sulforhodamine B assay relative to control; format: functional; conditions: read-out: Activity

Work on COc1ccc(C(=O)/C=C/c2cc(-c3cc(OC)c(OC)c(OC)c3)n[nH]2)cc1OC yielded an LC50 [1] of 80.2 µM, a TGI [1] of 4.18 µM and an LC50 [2] of 5.35 µM. For the same compound, the TGI [2] was 2.77 µM, the TGI [3] was 5.24 µM and the CC50 ([3]; read-out: LC50 (the source's name)) was 22.7 µM. For the same compound, the LC50 [4] was 4.99 µM, the TGI [4] was 2.48 µM and the LC50 (concentration killing 50% of cells) [5] was 5.87 µM. It also gave a TGI [5] of 2.9 µM, an LC50 [6] of over 100 µM and a TGI [6] of 4.36 µM. It also gave a GI50 [7] of 0.75 µM, an LC50 [7] of 5.21 µM and a TGI [7] of 2.18 µM. The IC50 [8] was 0.51 µM, the growth at 0.01 µM [9] was 101% and the growth at 0.01 µM [10] was 95%. The growth at 0.01 µM [11] was 93%, the growth at 0.01 µM [12] was 102% and the growth at 0.01 µM [13] was 96%. For the same compound, the growth at 0.1 µM [14] was 101%, the growth at 0.1 µM [15] was 89% and the growth at 0.1 µM [16] was 98%. For the same compound, the growth at 1 µM [17] was 65%, the growth at 1 µM [18] was 96% and the growth at 1 µM [19] was 76%. For the same compound, the growth at 10 µM [20] was -81%, the growth at 10 µM [21] was -95% and the growth at 10 µM [22] was -94%. The growth at 10 µM [23] was -98%, the growth at 10 µM [24] was -9% and the growth at 100 µM [25] was -23%. The growth at 100 µM [26] was -98%, the growth at 100 µM [27] was -13% and the growth at 100 µM [28] was -60%. The growth at 100 µM [29] was -82%, the growth at 100 µM [30] was -96% and the growth at 100 µM [31] was -98%. The growth at 100 µM [32] was -84%, the growth at 100 µM [33] was -95% and the growth at 100 µM [34] was -89%. The growth at 100 µM [35] was -46%.
